Data set [1] deals with Cyclin-dependent kinase 2 (Homo sapiens, UniProt P24941). Description: Inhibition of CDK2.
Data set [2] deals with MCF7. Description: Antiproliferative activity against human MCF7 cells assessed as BrdU incorporation after 48 hrs. The format is functional, cell-based. The note with it: MCF7, 48 h.
A short description of data set [3]: Fraction unbound in rat serum. The format is ADME, cell-free.
Data set [4] is described as follows: Lipophilicity, log D at pH 7.4. The settings on record: buffer.
Data set [5] concerns the target Cyclin-dependent kinase 4 (Homo sapiens, UniProt P11802). Description: Inhibition of CDK4.
Data set [6] has as its system LoVo. Nature of the data set: Antiproliferative activity against human LoVo cells assessed as BrdU incorporation after 48 hrs. The format is functional, cell-based. (In general: Dividing cells build labelled thymidine or BrdU into new DNA.)
Data set [7] is described as follows: physchem. The note with it: buffer, pH 7.4.
The target in data set [8] is G1/S-specific cyclin-E1 (Homo sapiens, UniProt P24864). Description: Inhibition of Cyclin E/CDK2.
The target of data set [9] is G2/mitotic-specific cyclin-B1 (Homo sapiens, UniProt P14635). Description: Inhibition of Cyclin B1/CDK1.
The target in data set [10] is T1, G1/S-specific cyclin-D3 (Homo sapiens, UniProt P30281).
T1 sequence (P30281 whole entry): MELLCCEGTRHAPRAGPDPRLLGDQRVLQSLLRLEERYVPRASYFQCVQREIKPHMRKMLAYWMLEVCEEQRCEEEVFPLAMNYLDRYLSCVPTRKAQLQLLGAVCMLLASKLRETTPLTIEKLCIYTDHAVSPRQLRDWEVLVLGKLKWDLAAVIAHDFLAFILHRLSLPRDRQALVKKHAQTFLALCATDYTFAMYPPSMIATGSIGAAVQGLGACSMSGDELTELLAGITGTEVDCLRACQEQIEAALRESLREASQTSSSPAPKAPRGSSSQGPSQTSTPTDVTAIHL
Nature of the data set: Inhibition of Cyclin D3/CDK6.

Data set [11] in a line: Volume of distribution at steady state in mouse at 5.5 mg/kg, iv. Format: ADME, organism-based. On the set-up: dose 5.5 mg/kg, route intravenous. The note with it: in vivo, read-out: Vdss.
The nature of data set [12]: Clearance in mouse at 5.5 mg/kg, iv. The format is ADME, organism-based. More on the design: dose 5.5 mg/kg, route intravenous. The note with it: in vivo.
Data set [13] can be described thus: AUC (0 to t) in mouse at 10 mg/kg, po. The format is ADME, organism-based. More on the design: dose 10 mg/kg, route oral. The note with it: plasma.
Data set [14] can be described thus: Cmax in mouse at 10 mg/kg, po. The format is ADME, organism-based. The note with it: in vivo. On the set-up: dose 10 mg/kg, route oral.
The nature of data set [15]: Tmax in mouse at 10 mg/kg, po. Format: ADME, organism-based. On the set-up: dose 10 mg/kg, route oral. The note with it: in vivo.
Data set [16] in a line: Oral bioavailability in mouse at 10 mg/kg. Format: ADME, organism-based. The note with it: in vivo.

We go through 27 molecules from ChEMBL document CHEMBL1142453, “Imidazoles: SAR and development of a potent class of cyclin-dependent kinase inhibitors” (Bioorg Med Chem Lett, 2008).

Values after ≈ are worked out from the molar mass of the structure shown.

Chain of Cyclin-dependent kinase 4 (P11802 whole entry): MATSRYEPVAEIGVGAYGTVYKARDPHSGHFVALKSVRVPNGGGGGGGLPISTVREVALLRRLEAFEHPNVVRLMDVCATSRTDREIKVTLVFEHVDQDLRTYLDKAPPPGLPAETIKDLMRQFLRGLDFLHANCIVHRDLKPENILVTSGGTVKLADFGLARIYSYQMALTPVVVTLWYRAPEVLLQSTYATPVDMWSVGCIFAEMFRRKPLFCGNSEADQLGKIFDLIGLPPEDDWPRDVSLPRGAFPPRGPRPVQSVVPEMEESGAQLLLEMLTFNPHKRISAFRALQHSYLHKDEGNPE
Chain of G2/mitotic-specific cyclin-B1 (P14635 whole entry): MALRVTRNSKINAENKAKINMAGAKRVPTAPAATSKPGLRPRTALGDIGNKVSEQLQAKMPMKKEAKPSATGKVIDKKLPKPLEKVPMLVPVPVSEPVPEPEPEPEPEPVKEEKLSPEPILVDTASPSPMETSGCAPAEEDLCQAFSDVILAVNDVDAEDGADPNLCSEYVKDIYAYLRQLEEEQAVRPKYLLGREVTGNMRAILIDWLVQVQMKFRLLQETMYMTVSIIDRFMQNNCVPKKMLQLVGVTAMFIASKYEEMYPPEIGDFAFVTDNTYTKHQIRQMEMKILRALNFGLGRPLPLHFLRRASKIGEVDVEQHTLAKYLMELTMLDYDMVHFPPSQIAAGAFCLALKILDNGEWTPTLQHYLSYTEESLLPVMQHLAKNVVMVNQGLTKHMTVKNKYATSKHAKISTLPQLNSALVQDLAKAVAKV
Chain of G1/S-specific cyclin-E1 (P24864 whole entry): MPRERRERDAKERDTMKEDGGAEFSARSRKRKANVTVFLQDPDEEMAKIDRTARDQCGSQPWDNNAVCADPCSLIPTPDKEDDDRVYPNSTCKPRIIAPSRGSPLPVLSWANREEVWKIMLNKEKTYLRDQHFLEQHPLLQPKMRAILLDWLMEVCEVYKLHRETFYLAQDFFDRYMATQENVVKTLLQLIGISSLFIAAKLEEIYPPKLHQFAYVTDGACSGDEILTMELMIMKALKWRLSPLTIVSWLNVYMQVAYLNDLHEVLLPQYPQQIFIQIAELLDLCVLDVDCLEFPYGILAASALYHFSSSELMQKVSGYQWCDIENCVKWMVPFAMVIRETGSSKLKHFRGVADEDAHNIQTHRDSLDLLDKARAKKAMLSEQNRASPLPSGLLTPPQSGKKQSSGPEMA

The term IC50 denotes the concentration that gives 50% inhibition. Take `COCCNS(=O)(=O)c1ccc(Nc2nccc(-c3cnc4ccccn34)n2)cc1`: the IC50 in data set [1] was below 12 nM; in [2], 400 nM.

The fraction unbound is free concentration divided by total concentration. Consider `COCCNS(=O)(=O)c1ccc(Nc2nccc(-c3cnc4cccnn34)n2)cc1`, for which, in data set [3], the fraction unbound is 0.008.

Usually logD stands for the decadic logarithm of the distribution of all forms, ionised or not, between an organic phase and buffer at a given pH. Higher therefore signals a more lipophilic compound. The solubility is the concentration that dissolves in the medium under given conditions. `Cc1ncc(-c2ccnc(Nc3ccc(S(=O)(=O)CCCN(C)C)cc3)n2)n1C(C)C` came in with a logD in [4] of 1.3. The fraction unbound in data set [3] is 0.32. Also, the half-maximal inhibitory concentration (IC50) in [1] was found to be 36 nM; in data set [5] it was 140 nM; in data set [6] it was 890 nM. Further, the solubility in data set [7] is above 6800 µM.

`Cc1ncc(-c2ccnc(Nc3ccc(S(=O)(=O)CCCN4CCOCC4)cc3)n2)n1C(C)C`: the IC50 in [1] was determined as 33 nM; in [5] it was 210 nM; in data set [6], 1200 nM.

Take `Cc1ncc(-c2ccnc(Nc3ccc(S(=O)(=O)Cc4ccccc4)cc3)n2)n1C(C)C`: the IC50 in [1] was 19 nM; in data set [5], 1500 nM; in data set [6], 1500 nM.

For the molecule `COCCNS(=O)(=O)c1ccc(Nc2nccc(-c3c(C)nc(C)n3C)n2)cc1`, the IC50 in [1] was 68 nM; in [5], above 8600 nM; in data set [6], 9200 nM.

Consider `Cc1ncc(-c2ccnc(Nc3ccc(S(=O)(=O)CCCN(C)C)cc3)n2)n1C`, for which the IC50 in [1] came out at 295 nM.

Consider `COCCNS(=O)(=O)c1ccc(Nc2nccc(-c3cnc(C)n3C(C)C)n2)cc1`, for which the IC50 was 200 nM in [5] and 310 nM in data set [6].

As for `COCCNS(=O)(=O)c1ccc(Nc2nccc(-c3cnc(C)n3C3CCCC3)n2)cc1`, the concentration for half-maximal inhibition (IC50) in data set [1] was below 3 nM; in data set [6], 610 nM.

`CN(C)CCNS(=O)(=O)c1ccc(Nc2nccc(-c3cnc4cccnn34)n2)cc1`: the IC50 in data set [2] amounted to 260 nM.

On to `Cc1ncc(-c2ccnc(Nc3ccc(S(N)(=O)=O)cc3)n2)n1C`, for which the IC50 in data set [1] was determined as 11 nM; in data set [2], 870 nM.

As to `CCCS(=O)(=O)c1ccc(Nc2nccc(-c3cnc(C)n3C(C)C)n2)cc1`, the IC50 is 8 nM in data set [1] and 1800 nM in data set [6].

`CNS(=O)(=O)c1ccc(Nc2nccc(-c3cnc(C)n3C)n2)cc1`: the IC50 in data set [1] is below 3 nM; in data set [2], 500 nM.

As to `Cc1ncc(-c2ccnc(Nc3ccc(S(=O)(=O)NCCN(C)C)cc3)n2)n1C`, the figures for the IC50 in [1] and in [2] were 25 nM and 490 nM, respectively.

In the case of `COCCN(C)S(=O)(=O)c1ccc(Nc2nccc(-c3cnc(C)n3C)n2)cc1`, the IC50 in data set [1] is 400 nM.

Molecule `CCn1c(-c2ccnc(Nc3ccc(S(=O)(=O)NCCOC)cc3)n2)cnc1C` came in with a fraction unbound in data set [3] of 0.014. Further, the half-maximal inhibitory concentration (IC50) in [1] amounted to 4 nM; in [5] it was 1300 nM; in data set [6], 1500 nM.

As for `COCCNS(=O)(=O)c1ccc(Nc2nccc(-c3cnc(C)n3CC(C)C)n2)cc1`, the IC50 in data set [1] was found to be 15 nM; in data set [6], 1800 nM.

On to `CCn1c(-c2ccnc(Nc3ccc(S(C)(=O)=O)cc3)n2)cnc1C`, for which, in data set [1], it took 23 nM to reach half-maximal inhibition (IC50).

As for `CN(C)CCCNS(=O)(=O)c1ccc(Nc2nccc(-c3cnc4cccnn34)n2)cc1`, the logD in [4] came to 1.4. In data set [3], the fraction unbound was determined as 0.148. This molecule returned a solubility in data set [7] of 160 µM (≈ 72.4 µg/mL).

With `Cc1ncc(-c2ccnc(Nc3ccc(S(=O)(=O)CC4CCCO4)cc3)n2)n1C(C)C` (stereo not drawn), the values for the IC50 in data set [1], in data set [5] and in data set [6] were 13 nM, 530 nM and 1200 nM, respectively.

In the case of `COCCS(=O)(=O)c1ccc(Nc2nccc(-c3cnc(C)n3C(C)C)n2)cc1`, the IC50 in [1] was determined as 14 nM; in [5] it was 490 nM; in data set [6] it was 690 nM.

Regarding `CNS(=O)(=O)c1ccc(Nc2nccc(-c3cnc4cccnn34)n2)cc1`, the half-maximal inhibitory concentration (IC50) is below 3 nM in data set [1] and 560 nM in [2].

Regarding `COCCNS(=O)(=O)c1ccc(Nc2nccc(-c3cnc(C)n3C)n2)cc1`, the IC50 in [1] stood at 8 nM; in [5], 5600 nM; in data set [2], 620 nM; in data set [6] it was 4000 nM.

Regarding `Cc1ncc(-c2ccnc(Nc3ccc(S(=O)(=O)NCCCOC(C)C)cc3)n2)n1C`, the 50% inhibitory concentration (IC50) in data set [1] came out at 6 nM; in data set [2] it was 320 nM.

For the molecule `CN(C)CCNS(=O)(=O)c1ccc(Nc2nccc(-c3cnc4ccccn34)n2)cc1`, the logD in [4] was found to be 2.7. In [3], this molecule yielded a fraction unbound of 0.03. Besides, the solubility in data set [7] turned out to be 31 µM (≈ 13.6 µg/mL).

`NS(=O)(=O)c1ccc(Nc2nccc(-c3cnc4ccccn34)n2)cc1` showed a pH-dependent lipophilicity (logD) in [4] of 2.7. Further, the fraction unbound in data set [3] amounted to 0.001. The IC50 in data set [1] amounted to 2 nM; in [2] it was 260 nM. For the same molecule, in data set [7], the solubility was 6.5 µM (≈ 2.38 µg/mL).

In general, clearance refers to the rate of elimination divided by the concentration. The low end stands for inefficient removal, the high end for efficient removal. For orientation: AUC(0-t) means exposure summed from dosing to a finite time, without extrapolation to infinity. As usually defined, the Cmax is the peak of the concentration-time curve. As a reminder, the Tmax is the time at which the peak concentration occurs. The bioavailability is the share of a dose that reaches the circulation, judged against a reference dose that is usually intravenous. For the molecule `Cc1ncc(-c2ccnc(Nc3ccc(S(C)(=O)=O)cc3)n2)n1C(C)C` [AZD-5438], the IC50 in data set [8] came to 6 nM; in data set [9], 16 nM; in data set [10] it was 21 nM; in data set [6], 630 nM. For the same molecule, the logD in [4] was 2.4. In addition, the fraction unbound in [3] was 0.087. Moreover, in data set [11], the Vd is 1.01 L/kg. In [12], this molecule gave a clearance of 21.8 mL/min/kg. The same molecule gave an exposure AUC(0-t) in data set [13] of 18.7 µM·h. This molecule returned a Cmax in data set [14] of 6.4 µM. Besides, in data set [15], the Tmax was 19.8 min. In [16], this molecule yielded a bioavailability of 91%. Further, the concentration in solution in data set [7] (solubility) was 218 µM (≈ 81 µg/mL).
